Experimental data taken from patent US9050294B2, “Treatment of neural diseases or conditions” (Royal Institution for the Advancement of Learning/McGill …, priority 2008, dated 2015).
Entries after “also recorded” stand apart in the source; their conditions may differ.

Assays:
[1] = system: SOD1^G93A transgenic mice; assay: Glial activation in L4 ventral horn (GFAP and Mac-2 immunohistochemistry); format: in vivo, mouse; conditions: L4, 130 days of age; p≦0.05
Description: (B) For ALS studies: Mice were deeply anaesthetized with a cocktail of ketamine (7.5 mg/ml) and xylazine (0.5 mg/ml) administered via intraperitoneal injection at a dose of 20 ml/kg of body weight. Animals were then sacrificed by transcardial perfusion with 4% paraformaldehyde in 0.1M phosphate buffered saline (PBS). The fourth lumbar spinal cord segment, identified by its contribution to the sciatic nerve was carefully removed, post-fixed for 1 hour in 4% paraformaldehyde solution and cryoprotected overnight in 30% sucrose in 0.1M PBS. […] Images were imported into SigmaScan™ Pro Image Measurement Software Version 5.0.0 (SPSS Inc., Chicago, Ill.) and activated astrocytes and microglia were quantified by exceeding an intensity threshold. […] Serial sections from a separate set were stained for Nissle body detection using cresyl violet staining and the number of motor neurons surviving in the ventral horn were quantified.
Immunohistochemistry was also performed on different serial sections from the same animals. […] Images of both ventral horns were captured every 300 μm and imported into SigmaScan™ Pro image quantification software. The area occupied by darkly stained cells was quantified and normalized for the total area.

microglial cells = assay: Cell viability and cell de-attachment studies on microglial cells; format: cell-based, mouse; conditions: 0.625 and 1.25 μM
[2] = system: spinal cord injury (SCI) in BALB/c mice; assay: Oxidative stress markers (MDA, nitrotyrosine) in spinal cord after SCI, ELISA; format: in vivo, mouse; conditions: 3 dpi, vs control mice
Excerpt: (§1) Fenretinide preparation and treatment.

[3] = system: spinal cord injury (SCI) in BALB/c mice; assay: Locomotor recovery after SCI, Basso Mouse Scale (BMS) open-field test; format: in vivo
Description: as §1
Locomotor recovery was evaluated in an open-field test using the Basso Mouse Scale (BMS) (Basso et al. (2006) J Neurotrauma 23: 635-659), which was specifically developed for locomotor testing after contusion injuries in mice. The BMS analysis of hindlimb movements and coordination was carried out by two independent trained assessors, and the consensus score taken. The final score is presented as mean±SEM. The BMS is a compressed scale with a maximum score of 9 as compared to the […] BBB scale for rats. Therefore small differences in the BMS can account for larger functional differences.

[4] = system: spinal cord injury (SCI) in BALB/c mice; assay: AA and DHA levels in plasma and spinal cord after spinal cord contusion (lipid analysis, GC/MS); conditions: 5 mg/kg/day oral
Description: Adult (8-10 weeks old) female BALB/c mice (Charles River Canada) were anaesthetized with ketamine:xylazine:acepromazine (50:5:1 mg/kg). After performing a laminectomy at the 11th thoracic vertebrae, the exposed spinal cord was contused using the Infinite™ Horizons Impactor device (Precision Scientific Instrumentation, Lexington, Ky.). Moderate injuries were made using a force of 50 kDynes and tissue displacements ranging between 400-600 μm (Ghasemlou et al. (2005) Exp. Neurol. 196: 9-17).
Fenretinide preparation and treatment. Fenretinide powder was resuspended in 95% ethanol under sterile conditions to generate a 2 μg/μL stock solution. This solution was incorporated into a daily liquid diet of Peptamen™ (Nestle Canada, Brampton, ON) at a dose of 5 mg/kg/day for oral consumption as described previously (Guilbault et al. (2008) Am J Respir Cell Mol Biol 38: 47-56). The suspension was protected from light and kept at 4° C. before treatment of the mice. One hour following surgery and for the subsequent three days, fenretinide was administered by gavage in two doses, each suspended in 300 μL of Peptamen™. Gavage was chosen as the method of drug delivery immediately after surgery due to the loss of appetite and reduced food intake during the first 48 h after injury. After day three, mice were fed the fenretinide/Peptamen™ mixture. At this point mice were separated into individual cages in order to ascertain the amount of food and drug consumed. Following day 3, the diet was administered every morning with careful monitoring of the quantity consumed by each mouse. More specifically, the daily fenretinide dose was incorporated into 12 ml of Peptamen™, which represents 80% of the daily mouse food consumption, to ensure 100% consumption. The food was given to the mice in the mid-morning. The diet for control animals was prepared and administered in the same fashion as the drug treatment; however, control animals received Peptamen™ with no fenretinide added but with an equivalent amount of ethanol.
(A) For SCI studies: in order to establish plasma kinetics, blood samples were taken from the saphenous vein at day 0, 1, 3, 7, 11, and 21 post-injury. On day 28, blood samples were obtained by intra-cardiac puncture. All blood samples were mixed with 10 μl of EDTA to prevent coagulation and centrifuged at 350×g for 7 minutes at 4° C. The plasma was then removed and lipids were extracted with chloroform-methanol (2:1 vol/vol) containing 1 mM butylated hydroxyanisole (BHA), as previously described (Folch et al. (1957) J Biol Chem 226: 497-509). The lipid fractions were dried under nitrogen and resuspended in heptane as previously described (De Sanctis (1991) Med Sci Res 19: 335-337). Phospholipids were identified by thin layer chromatography extraction. Diazomethane was used to esterify the released fatty acids and the esters were identified by GC/MS (Hewlett Packard 5880A, WCOT) capillary column (Supelco™-10, 35 m×0.5 mm, 1 μm thick) using commercial standards (Sigma-Aldrich, Oakville, ON, Canada). Total levels of DHA and AA as well as phospholipid-bound DHA, phospholipid-bound AA, malonyldialdehyde (MDA) and nitrotyrosine were assessed in both plasma and spinal cord samples.

SMILES: CC1=C(/C=C/C(C)=C/C=C/C(C)=C/C(=O)Nc2ccc(O)cc2)C(C)(C)CCC1 [fenretinide, all-trans-N-(4-hydroxyphenyl) retinamide]
- GFAP staining of ventral horn: sham-treated mice greater than fenretinide-treated [1]: more than 50%
- Mac-2 positive stained area: control animals more than fenretinide-treated [1]: 60%
- toxic effects on the cells (cell viability, cell de-attachment) (microglial cells): did not have any toxic effects
- decrease of malonyldialdehyde (MDA) level in spinal cord [2]: about 2 fold
- decrease of nitrotyrosine level in spinal cord [2]: about 2 fold
- BMS score ([3]; 5 mg/kg/day oral started 1 h after SCI, 28 dpi, 9-point scale, vehicle 4.6): 5.8
- mean BMS subscore higher than vehicle-treated mice ([3]; 5 mg/kg/day oral, 28 dpi): 2.2 points
- fine locomotor skills (BMS subscores) vs vehicle ([3]; 5 mg/kg/day oral, day 7 to 28 after SCI): significant improvement
- locomotor function (BMS) vs vehicle-treated mice ([3]; 5 mg/kg/day oral, significant from day 7 after SCI): improved locomotor function; also recorded: significantly enhanced motor skills
- plasma docosahexaenoic acid (DHA) levels vs vehicle-treated mice ([4]; started 1 h after SCI, 3 to 28 dpi): concomitant increase; also recorded: significantly higher
- plasma arachidonic acid (AA) levels vs vehicle-treated mice ([4]; started 1 h after SCI, day 1 to 28 after SCI): significant reduction
- AA level in injured spinal cord vs vehicle ([4]; 3 dpi): significant decrease
- DHA level in injured spinal cord vs vehicle ([4]; 3 dpi): increase
